Reference: patent US20120208776A1 (priority 2002, published 2012)
≈ marks a conversion by molar mass, not a printed value. Where “and” joins values, the source holds several entries; their conditions need not be identical. Identical values can stand only once. Like-named read-outs stand apart in the source and are kept apart here.

How the values were obtained:
BT474 cells = test: Cell proliferation, cell count (Coulter Counter); format: cell-based; settings: Homo sapiens
MDA-MB-453 cells [1] = test: Cell-cycle analysis by DNA flow cytometry; format: cell-based, human; settings: for Sub G1 (%) / G1 (%) / G2/M (%) / S (%): 48 hrs; for G1 / G2 / S / SubG1: 24 hours
Method: Synchrony: To synchronize the cells, 3×10^5 cells were plated onto 10 cm dishes and grown for 2 days in DMEM supplemented with 10% fetal bovine serum.
After incubation for 1-3 days, the supernatant was collected, and the cells were trypsinized, collected, and washed with phosphate buffered saline (PBS) containing 5% FBS. Cell pellets were re-suspended in 1 ml of PBS plus 5% FBS. Thereafter, 5 ml of 70% ethanol were added drop-wise, while vortexing the tube, and the mixture was stored at 4° C. Cells were centrifuged, washed with PBS plus 5% FBS, and re-suspended in 400 μl of propidium iodide (0.1 mg/ml) (Sigma Chemical Co.). 400 μl (2 mg/ml) of RNase (Sigma Chemical Co.) were added, and the cells were incubated in the dark at room temperature for 30 min.

MDA-MB-453 cells [2] = test: Western-blot analysis; format: cell-based, human; settings: for IκB band intensity relative to β-actin / IκκB band intensity relative to β-actin / PPAR-γ band intensity relative to β-actin / p-Her2 level (WB) / cyclin D1 band intensity relative to β-actin: MDA-MB-453; for increase in level of p-Src: serum-starved MDA-MB-453, 80 μg/ml, 30 min
Method: Cells were treated for increasing times with approximately the IC50 concentration, or twice the IC50 concentration, of actein. The cells were harvested, washed with PBS, and sonicated in extraction buffer according to the procedure of Han et al. (Han et al., Stable overexpression of cyclin D1 in a human mammary epithelial cell line prolongs the S-phase, and inhibits growth. Oncogene, 10:953-61, 1995). The lysates were subjected to electrophoresis on a 10% or 12.5% SDS-polyacrylamide gel, and then transferred to a polyvinylidene difluoride (PVDF) membrane. The membrane was blocked with milk protein, and incubated with a solution containing the primary antibody against the following: cyclin D1 (Upstate Biotechnology, Lake Placid, N.Y.), p21^cip1 (Oncogene Research Products, Darmstadt, Germany), ppRb (ser 780, Medical and Biological Laboratories, Nagoya, Japan), cdk4 (Upstate Biotechnology, Lake Placid, N.Y.), EGFR (clone-74, Transduction Laboratories, Lexington, Ky.), p-EGFR (phospho (Y1173)-EGFR) (Cell Signaling, Beverly, Mass.), actin (Sigma, St. Louis, Mo.), Her-2/neu (Cell Signaling, Beverly, Mass.), or phospho-(Y1248)-Her-2/neu (Cell Signaling, Beverly, Mass.)), IκB (Sant Cruz Biotechnolgy, Santa Cruz, Calif.), IκκB (Sigma, St. Louis, Mo.) and PPARγ (Santa Cruz biotechnology, Santa Cruz, Calif.) (Masuda et al., Epigallocatechin-3-gallate inhibits activation of HER-2/neu and downstream signaling pathways in human head and neck and breast carcinoma cells. Clin. Cancer Res., 9: 3486-91, 2003). The membrane was washed, and incubated with horseradish peroxidase conjugated secondary antibody.
Protein bands were visualized with the ECL-enhanced chemiluminescence system, according to the manufacturer's directions (Amersham Pharmacia Biotech) (Sgambato et al., Overexpression of p27 (Kip1) inhibits the growth of both normal and transformed human mammary epithelial cells. Cancer Research, 58:3448-54, 1998). The staining intensities of the visualized blots were quantified using NIH image software. For each protein, the relative band intensities were determined by comparing treated samples with untreated controls. These values were then normalized, using β-actin as an internal control.
Western blot analysis. […] To assay activation of p-Src, cells were allowed to attach for 24 h, incubated in media without serum for 24 h; the medium was replaced with media without serum with DMSO, actein or digtioxin.
Western blot analysis was performed as previously described. […] The membrane was incubated with the primary antibodies, cyclin D1 (Santa Cruz Biotechnology; Santa Cruz, Calif.), p-Src, Akt, p-Akt, ERK2 or p-Erk2 (Cell signaling, Beverly, Mass.); β-actin was used as a loading control.
Western blot analysis was performed as described previously.

Na^+-K^+-ATPase = target: T1, Na^+-K^+-ATPase; test: Enzymatic assay of adenosine 5′-triphosphatase; format: biochemical; settings: read-out: IC50 (50% inhibition of Na^+-K^+-ATPase activity); purified enzyme, in vitro
T1 construct: Combination index; actein (μM); Combination index; actein; ATPase activity; other: actein 0.8 μM alone; other: digitox
Method: Enzymatic assay of adenosine 5′-triphosphatase. The enzymatic assay of ATPase (adenosine 5′-triphosphatase, EC 3.6.1.3) followed the Sigma Prod. […] [P] was determined by the Taussky-Shorr method.

MDA-MB-453 cells [3] = test: MTT assay, 96 hours; format: cell-based, human; settings: for IC50: Homo sapiens, MTT, 96 h
Method: (§1) For the Coulter counter assay, cells were seeded at 2×10^4 cells per well in 24 well plates (0.875 cm diameter) as described previously. […] Control and treated cells were compared using the student's t-test (p<0.05). For cell cycle analysis the cells were plated (3×10^5) onto 6 cm dishes and allowed to attach for 24 hours. […] After 24 hours the cells were analyzed by DNA flow cytometry, as described previously.

HCC1569 cells = test: MTT assay, 96 hours; format: cell-based; settings: Homo sapiens
MCF7 cells = test: MTT assay, 96 hours; format: cell-based, human
MDA-MB-453 cells [4] = test: Combination of agents, MTT assay, combination index
Method: Calculating the Combination Index. To determine the Combination Index (CI), 1) the Na^+-K^+-ATPase enzyme or 2) MDA-MB-453 cells were exposed to all combinations of 3, 4 or 5 concentrations of each of the agents tested and a solvent control. […] The results of the enzymatic assay of ATPase or MTT assay were analyzed for possible synergistic effects using the median effect principle. Variable ratios of drugs were employed and mutually exclusive equations were assumed.
Calculating the Combination Index.
The simvastatin was obtained from Sigma of St. Louis, Mo. The concentrations tested in the present example were 0, 0.2, 2, 5, and 20 μg/ml actein and 0, 0.8, 4, 20 and 40 μg/ml simvastatin.

MDA-MB-453 cells [5] = test: Cell proliferation, cell count (Coulter Counter); settings: Homo sapiens, MDA-MB-453, 96 h
Method: For the cell count assay, breast cancer cells were seeded, in triplicate, at 2×10^4 cells per well, in 24- or 96-well plates.
as §1

[6] = Homo sapiens, MDA-MB-453, read-out: percent viable cells

CC(=O)O[C@@H]1C[C@@]23C[C@@]24CC[C@H](O[C@@H]2OC[C@@H](O)[C@H](O)[C@H]2O)C(C)(C)[C@@H]4CC[C@H]3[C@]2(C)C[C@@H]3O[C@]4(C[C@@H](C)[C@@H]3[C@@]12C)O[C@H](O)[C@@]1(C)O[C@@H]41 [actein]
IC50 (BT474 cells; BT-474, BT474, unit inferred, read-out: IC50): 23.6 µM
Sub G1 (%) (MDA-MB-453 cells [1]; (a) DMEM + […] FBS 48 hrs, then actein 20 μg/ml): 1.8%
G1 (%) (MDA-MB-453 cells [1]; (a) […] FBS, actein 20 μg/ml): 79.6%
G2/M (%) (MDA-MB-453 cells [1]; (a) […] FBS, actein 20 μg/ml): 10.0%
S (%) (MDA-MB-453 cells [1]; (a) […] FBS, actein 20 μg/ml): 8.5%
G1 (%) (MDA-MB-453 cells [1]; (a) […] FBS, actein 40 μg/ml): 83.8%
G2/M (%) (MDA-MB-453 cells [1]; (a) […] FBS, actein 40 μg/ml): 9.0%
S (%) (MDA-MB-453 cells [1]; (a) […] FBS, actein 40 μg/ml): 4.9%
Sub G1 (%) (MDA-MB-453 cells [1]; (a) […] FBS, actein 40 μg/ml): 2.2%
G1 (%) (MDA-MB-453 cells [1]; (b) Actein 2 μg/mL): 69.8%
G2/M (%) (MDA-MB-453 cells [1]; (b) Actein 2 μg/mL): 18.6%
S (%) (MDA-MB-453 cells [1]; (b) Actein 2 μg/mL): 11.0%
Sub G1 (%) (MDA-MB-453 cells [1]; (b) Actein 2 μg/mL): 0.9%
G1 (%) (MDA-MB-453 cells [1]; (b) Actein 20 μg/mL): 70.8%
G2/M (%) (MDA-MB-453 cells [1]; (b) Actein 20 μg/mL): 18.2%
S (%) (MDA-MB-453 cells [1]; (b) Actein 20 μg/mL): 9.7%
Sub G1 (%) (MDA-MB-453 cells [1]; (b) Actein 20 μg/mL): 1.6%
G1 (%) (MDA-MB-453 cells [1]; (c) Actein 20 μg/mL): 59.2%
G2/M (%) (MDA-MB-453 cells [1]; (c) Actein 20 μg/mL): 29.5%
S (%) (MDA-MB-453 cells [1]; (c) Actein 20 μg/mL): 8.6%
Sub G1 (%) (MDA-MB-453 cells [1]; (c) Actein 20 μg/mL): 2.7%
IκB band intensity relative to β-actin (MDA-MB-453 cells [2]; 3 h, 20 μg/ml): 1.2 fold
IκκB band intensity relative to β-actin (MDA-MB-453 cells [2]; 3 h, 20 μg/ml): 1.79 fold
PPAR-γ band intensity relative to β-actin (MDA-MB-453 cells [2]; 3 h, 20 μg/ml): 1.39 fold
p-Her2 level (WB) (MDA-MB-453 cells [2]; 3 h, 20 μg/ml): 0.71 fold
IκB band intensity relative to β-actin (MDA-MB-453 cells [2]; 3 h, 40 μg/ml): 1.09 fold
IκκB band intensity relative to β-actin (MDA-MB-453 cells [2]; 3 h, 40 μg/ml): 1.78 fold
PPAR-γ band intensity relative to β-actin (MDA-MB-453 cells [2]; 3 h, 40 μg/ml): 0.93 fold and 0.92 fold
cyclin D1 band intensity relative to β-actin (MDA-MB-453 cells [2]; 3 h, 40 μg/ml): 0.93 fold
p-Her2 level (WB) (MDA-MB-453 cells [2]; 3 h, 40 μg/ml): 0.86 fold
IκκB band intensity relative to β-actin (MDA-MB-453 cells [2]; 10 h, 20 μg/ml): 0.48 fold
IκκB band intensity relative to β-actin (MDA-MB-453 cells [2]; 10 h, 40 μg/ml): 0.59 fold
IκB band intensity relative to β-actin (MDA-MB-453 cells [2]; 24 h, 20 μg/ml): 0.81 fold
IκκB band intensity relative to β-actin (MDA-MB-453 cells [2]; 24 h, 20 μg/ml): 1.06 fold
PPAR-γ band intensity relative to β-actin (MDA-MB-453 cells [2]; 24 h, 20 μg/ml): 1.3 fold
cyclin D1 band intensity relative to β-actin (MDA-MB-453 cells [2]; 24 h, 20 μg/ml): 1.3 fold
p-Her2 level (WB) (MDA-MB-453 cells [2]; 24 h, 20 μg/ml): 0.81 fold
IκB band intensity relative to β-actin (MDA-MB-453 cells [2]; 24 h, 40 μg/ml): 0.53 fold
IκκB band intensity relative to β-actin (MDA-MB-453 cells [2]; 24 h, 40 μg/ml): 0.95 fold
PPAR-γ band intensity relative to β-actin (MDA-MB-453 cells [2]; 24 h, 40 μg/ml): 0.67 fold
cyclin D1 band intensity relative to β-actin (MDA-MB-453 cells [2]; 24 h, 40 μg/ml): 0.44 fold
p-Her2 level (WB) (MDA-MB-453 cells [2]; 24 h, 40 μg/ml): 0.53 fold
increase in level of p-Src (MDA-MB-453 cells [2]): 1.5 fold
IC50 (Na^+-K^+-ATPase): 11.2 µM and 16 µM
amplification: IC50 ATPase inhibition / IC50 growth inhibition (MDA-MB-453 cells [3]): about 2 fold
IC50 (MDA-MB-453 cells [3]; read-out: IC50): ~5 µg/mL and ~7.4 µM
IC50 (HCC1569 cells; unit inferred, read-out: IC50): 25 µM
IC50 (MCF7 cells; Homo sapiens, MCF7, unit inferred, read-out: IC50): 20.7 µM
viability at 0.2 µg/mL (MDA-MB-453 cells [4]; [6]): 97.8%
viability at 2 µg/mL (MDA-MB-453 cells [4]; [6]): 75.8%
viability at 5 µg/mL (MDA-MB-453 cells [4]; [6]): 70.9%
cell survival (MDA-MB-453 cells [4]; actein 2 ug/ml alone (simvastatin study)): 68.2%
IC50 (MDA-MB-453 cells [5]): ~8 µg/mL (≈ 11.8 µM)

C[C@H]1O[C@@H](O[C@H]2[C@@H](O)C[C@H](O[C@H]3[C@@H](O)C[C@H](O[C@H]4CC[C@@]5(C)[C@H](CC[C@@H]6[C@@H]5CC[C@]5(C)[C@@H](C7=CC(=O)OC7)CC[C@]65O)C4)O[C@@H]3C)O[C@@H]2C)C[C@H](O)[C@@H]1O [digitoxin]
IC50 (BT474 cells; BT-474, BT474, Coulter counter): 0.03 µg/mL and 40 nM
IC50 (BT474 cells; BT-474, BT474, unit inferred): 0.039 µM
G1 (MDA-MB-453 cells [1]; digitoxin 0.2 μg/mL): 46.50 (1.98) %
G2 (MDA-MB-453 cells [1]; digitoxin 0.2 μg/mL): 19.05 (0.07) %
S (MDA-MB-453 cells [1]; digitoxin 0.2 μg/mL): 27.65 (0.64) %
SubG1 (MDA-MB-453 cells [1]; digitoxin 0.2 μg/mL, SD in parentheses): 6.77 (1.06) %
G1 (MDA-MB-453 cells [1]; digitoxin 2.0 μg/mL): 41.90 (2.26) %
G2 (MDA-MB-453 cells [1]; digitoxin 2.0 μg/mL): 32.10 (1.27) %
S (MDA-MB-453 cells [1]; digitoxin 2.0 μg/mL): 17.80 (0.42) %
SubG1 (MDA-MB-453 cells [1]; digitoxin 2.0 μg/mL): 5.78 (1.02) %
increase in level of p-Src (MDA-MB-453 cells [2]): 1.5 fold
IC50 (Na^+-K^+-ATPase): 0.8 µM
IC50 (MDA-MB-453 cells [3]; MDA-MB-453, 96 h): ~0.025 µg/mL and ~33 nM
IC50 (HCC1569 cells): 0.12 µM
IC50 (MCF7 cells; Homo sapiens, MCF7, MCF7): 0.2 µg/mL
IC50 (MCF7 cells; Homo sapiens, MCF7, MCF7, unit inferred): 0.261 µM
IC50 (MCF7 cells; MCF7, unit inferred): 0.26 µM
viability at 0.01 µg/mL (MDA-MB-453 cells [4]; Homo sapiens, MDA-MB-453, read-out: percent viable cells, digitoxin 0.01 μg/ml alone (actein study)): 62.8%
viability at 0.01 µg/mL (MDA-MB-453 cells [4]; Homo sapiens, MDA-MB-453, read-out: percent viable cells, digitoxin 0.01 μg/ml alone (paclitaxel study)): 73%
IC50 (MDA-MB-453 cells [5]): 0.04 µg/mL and 50 nM
